Values of other authors, collected in US6683056B2, “O-aryl glucoside SGLT2 inhibitors and method” (Bristol-Myers Squibb Company, priority 2000, dated 2004).

Assays:
[1] = system: facilitative glucose transporters (GLUTs)
[2] = biological target: T1, SGLT2 (Homo sapiens, UniProt P31639); settings: read-out: Km values for uptake
T1 sequence (P31639 1-672): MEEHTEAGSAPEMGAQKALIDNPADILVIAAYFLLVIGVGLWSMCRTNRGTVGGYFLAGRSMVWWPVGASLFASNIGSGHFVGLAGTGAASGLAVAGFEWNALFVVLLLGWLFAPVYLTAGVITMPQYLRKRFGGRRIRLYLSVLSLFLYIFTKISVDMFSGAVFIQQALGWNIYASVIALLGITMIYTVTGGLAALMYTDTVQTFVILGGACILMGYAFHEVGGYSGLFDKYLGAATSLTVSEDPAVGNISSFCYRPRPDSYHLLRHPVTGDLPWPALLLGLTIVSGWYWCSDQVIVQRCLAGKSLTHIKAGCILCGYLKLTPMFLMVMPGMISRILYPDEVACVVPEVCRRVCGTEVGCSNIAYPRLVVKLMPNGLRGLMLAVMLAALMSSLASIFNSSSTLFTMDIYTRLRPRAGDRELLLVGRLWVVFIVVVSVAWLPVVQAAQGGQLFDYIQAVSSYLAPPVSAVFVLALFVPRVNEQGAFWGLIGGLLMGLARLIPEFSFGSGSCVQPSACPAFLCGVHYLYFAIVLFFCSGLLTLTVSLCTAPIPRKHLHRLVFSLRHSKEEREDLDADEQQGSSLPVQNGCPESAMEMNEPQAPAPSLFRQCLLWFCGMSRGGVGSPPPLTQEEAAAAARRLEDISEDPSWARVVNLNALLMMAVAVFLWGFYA

[3] = biological target: T2, SGLT1 (Homo sapiens, UniProt P13866)
T2 sequence (P13866 1-664): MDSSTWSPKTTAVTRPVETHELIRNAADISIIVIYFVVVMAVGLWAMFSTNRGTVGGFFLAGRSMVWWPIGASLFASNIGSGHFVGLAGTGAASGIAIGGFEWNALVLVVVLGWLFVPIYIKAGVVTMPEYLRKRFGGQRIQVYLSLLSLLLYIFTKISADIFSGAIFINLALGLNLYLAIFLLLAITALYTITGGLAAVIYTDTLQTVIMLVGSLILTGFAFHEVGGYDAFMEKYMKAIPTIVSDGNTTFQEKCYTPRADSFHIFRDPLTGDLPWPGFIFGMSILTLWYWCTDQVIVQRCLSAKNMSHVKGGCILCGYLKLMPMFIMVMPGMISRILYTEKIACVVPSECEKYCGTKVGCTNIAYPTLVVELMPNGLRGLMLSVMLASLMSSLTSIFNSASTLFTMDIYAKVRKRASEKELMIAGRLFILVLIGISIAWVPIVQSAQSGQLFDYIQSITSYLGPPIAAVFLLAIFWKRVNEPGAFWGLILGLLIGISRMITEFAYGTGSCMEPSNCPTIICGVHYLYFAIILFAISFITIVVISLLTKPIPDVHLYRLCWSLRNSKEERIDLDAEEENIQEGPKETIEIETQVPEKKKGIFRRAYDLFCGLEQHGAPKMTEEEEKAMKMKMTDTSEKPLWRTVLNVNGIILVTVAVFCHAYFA

[4] = system: several diabetic rodent models and one canine diabetes model
[5] = system: normal animals; settings: despite the presence of glycosuria
[6] = oral

For `O=C(CCc1ccc(O)cc1)c1c(O)cc(O)cc1O` [phloretin], the “inhibition of facilitated glucose transport” value [1] is given as “potent inhibitor of facilitated glucose transport”.
For `CO[C@H]1O[C@H](CO)[C@@H](O)[C@H](O)[C@H]1O` [AMG, α-methyl-D-glucopyranoside], the Km [2] is listed as 1600 µM and the Km ([3]; SGLT1, read-out: Km values for uptake) is listed as 400 µM.
In the case of `O=C(CCc1ccc(O)cc1)c1c(O)cc(O)cc1O[C@@H]1O[C@H](CO)[C@@H](O)[C@H](O)[C@H]1O` [phlorizin], the “in vivo effect on glucose excretion and plasma glucose” value ([4]; diabetic rodent models and one canine diabetes model) is given as “promoting glucose excretion, lowering fasting and fed plasma glucose, and promoting glucose utilization without hypoglycemic side effects”, the “adverse effects of treatment” value ([4]; treatment for as long as two weeks) is given as “No adverse effects on plasma ion balance, renal function or renal morphology” and the “hypoglycemic or other adverse effects” value [5] is given as “no hypoglycemic or other adverse effects”. For the same compound, the “stability in the gut” value [6] was “hydrolyzed in the gut to its aglycone phloretin”.
For `O=C[C@H](O)[C@@H](O)[C@@H](O)[C@H](O)CO` [galactose], the substrate specificity ([3]; SGLT1 versus SGLT2) is listed as “substrate for SGLT1 only”.
